Counter-ions that a name gives are not always drawn. Like-named read-outs stand apart in the source and are kept apart here.
Assays:
S1P1 [1] = molecular target: T1, S1P1 (Homo sapiens, UniProt P21453); test: 35S-GTPγS binding on membranes of CHO cells expressing S1P1; format: biochemical; conditions: read-out: S1P1/GTPG EC50
Protocol: (§1) Membranes were prepared from CHO cells expressing S1P1 or S1P3 for use in ligand and […] binding studies. Cells were suspended in 50 mM TRIS, pH 7.4, 2 mM EDTA, 250 mM Sucrose (buffer A) and 1× Complete protease inhibitor cocktail (Roche), and disrupted at 4° C. by N2 decompression using a cell disruption bomb (Parr Instrument). Following centrifugation at 1000 RPM for 10 min at 4° C., the supernatant was diluted (2×) in buffer A and centrifuged again at 19000 RPM for 75 min at 4° C. The pellet was then suspended in 10 mM HEPES, pH 7.4, 1 mM EDTA, 250 mM Sucrose (Buffer B), and 1× Complete EDTA-free protease inhibitor cocktail and homogenized using a potter. Membranes were flash frozen in liquid N2 and stored at −80° C.
(§2) Membranes (1 to 10 μg protein) prepared as described above, were incubated in 96-well Scintiplates (PerkinElmer) with test compounds diluted in DMSO, in 140 μl of 20 mM HEPES, pH 7.4, 10 mM MgCl2, 2 μg/well Saponin, 0.2% fatty acid free BSA (Assay buffer), 125 mM NaCl and 1.5 μM GDP. The assay was initiated with the addition of 60 μl of 1.5 nM [35S]-GTPγS (1100 Ci/mmol; GE Healthcare) in assay buffer. After 60 min incubation at 30° C. on a shaker, plates were centrifuged for 10 min at 2000 RPM. Supernatant was discarded and membrane bound radioactivity was measured on a PerkinElmer 1450 MicroBeta counter. Triplicate samples were averaged and expressed as % response relative to S1P activation in absence of compound (n=2).
(§3) The “potency” or the “activity” of the compounds is determined by the EC50 values as evaluated in the above described 35S-GTPγS binding assay.
Target sequence in this assay (P21453 whole entry, species assumed): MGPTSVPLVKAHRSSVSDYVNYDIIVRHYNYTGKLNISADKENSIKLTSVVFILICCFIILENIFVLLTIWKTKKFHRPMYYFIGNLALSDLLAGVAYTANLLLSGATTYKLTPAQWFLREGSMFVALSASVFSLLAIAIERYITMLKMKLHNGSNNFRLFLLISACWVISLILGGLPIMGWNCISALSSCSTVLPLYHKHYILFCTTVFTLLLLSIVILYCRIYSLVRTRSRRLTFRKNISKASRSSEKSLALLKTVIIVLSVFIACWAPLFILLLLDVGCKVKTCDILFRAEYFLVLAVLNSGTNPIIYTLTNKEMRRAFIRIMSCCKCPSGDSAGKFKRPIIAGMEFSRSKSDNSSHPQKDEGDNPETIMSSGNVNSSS

S1P3 [2] = molecular target: T2, S1P3 (Homo sapiens, UniProt Q99500); test: 35S-GTPγS binding on membranes of CHO cells expressing S1P3; format: biochemical; conditions: read-out: S1P3/GTPG EC50
Protocol: as §1, §2, §3

S1P1 [3] = molecular target: T1, S1P1; test: Receptor binding assay, [33P]sphingosine 1-phosphate competition, S1P1 membranes, WGA SPA beads
Method in brief: (§4)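 Competition of [33P]S1P ([…]) on CHO cell membranes with WGA SPA beads in 50 mM HEPES pH 7.5, 5 mM MgCl2, 100 mM NaCl, 0.4% fatty acid-free BSA; 60 min at RT. Triplicates normalised to total binding and nonspecific binding (1000-fold excess unlabeled S1P).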
Target sequence in this assay (P21453 whole entry, species assumed): as above

S1P3 [4] = molecular target: T2, S1P3; test: Receptor binding assay, [33P]sphingosine 1-phosphate competition, S1P3 membranes, WGA SPA beads
Method in brief: as §4

S1P1 [5] = molecular target: T1, S1P1; test: S1P1 internalization assay in S1P1-U2OS cells (S1P1-EGFP), cell imaging; format: cell-based; design: host or cells: U2OS (human bone osteosarcoma epithelial cells), CMV promoter, geneticin selection; conditions: 1 hour incubation
Method in brief: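 U2OS cells stably expressing human S1P1-EGFP, plated overnight in 1% FCS medium, then serum-starved 2 h in 0.1% fatty-acid-free BSA before 1 h compound exposure at 37 °C. After PFA fixation and Hoechst staining, internalization imaged as EGFP spot count per nucleus.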
Target sequence in this assay (P21453 whole entry): as the sequence (P21453 whole entry, species assumed) above

lymphocytes = test: Model of S1P agonists-induced lymphopenia in mice; format: in vivo; conditions: oral
Protocol: (§5) Female C57BL/6 mice (Elevage Janvier) (8 week old) receive S1P agonists by oral route. Blood is sampled in heparinized (100 IU/kg, ip) mice by intracardiac or retroorbital puncture under isoflurane anesthesia 2 to 120 hrs after drug treatment. The white blood cells (lymphocytes and neutrophils) are counted using a Beckman/Coulter counter. The quality of blood sampling is assessed by counting erythocytes and platelets.

[6] = Pharmacokinetics in mouse (PK parameters from lymphopenia study); format: in vivo; conditions: 30 mpk
Protocol: as §5
Pharmacokinetics Data: • The pharmacoinetic properties of compound of example 20, N-(3-fluoro-5-{5-[2-(methoxymethyl)-2′-methylbiphenyl-4-yl]-1,2,4-oxadiazol-3-yl}benzyl)-N-methylglycine, hydrochloride salt, are the following: […]

[7] = 96 well-plate, read-out: S1P1 binding Ki (M) (96 well-plate)
[8] = 96 well-plate, read-out: S1P3 binding Ki (M) (96 well-plate)
[9] = 384 well-plate, read-out: S1P3 binding Ki (M) (384 well-plate)
[10] = 384 well-plate, read-out: S1P1 binding Ki (M) (384 well-plate)
[11] = female, C57BL/6, plasma, po, 30 mg/kg

T2 sequence (Q99500 whole entry, species assumed): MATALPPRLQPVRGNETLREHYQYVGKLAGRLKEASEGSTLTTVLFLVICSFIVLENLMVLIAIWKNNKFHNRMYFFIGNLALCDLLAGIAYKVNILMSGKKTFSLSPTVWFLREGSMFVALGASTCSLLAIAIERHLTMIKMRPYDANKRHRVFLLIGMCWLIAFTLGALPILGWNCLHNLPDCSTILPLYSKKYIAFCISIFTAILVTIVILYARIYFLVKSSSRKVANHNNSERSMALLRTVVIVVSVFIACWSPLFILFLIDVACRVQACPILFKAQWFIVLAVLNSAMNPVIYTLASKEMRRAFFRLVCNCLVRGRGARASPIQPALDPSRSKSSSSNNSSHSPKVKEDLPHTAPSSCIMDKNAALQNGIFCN

Compound	melting point [°C]	EC50 (S1P1 [1]) [nM]	EC50 (S1P3 [2]) [nM]	Ki (S1P1 [3]; [7]) [M]	Ki (S1P3 [4]; [8]) [M]	Ki (S1P3 [4]; [9]) [M]	EC50 (S1P1 [5]) [nM]	also measured
COC(C)c1cc(-c2nc(-c3ccc(CN(C)CC(=O)O)cc3)no2)ccc1-c1ccccc1C (stereo not drawn) (as salt: hydrochloride) (hydrate or solvate) [Example 140, N-(4-{5-[2-(1-methoxyethyl)-2′-methylbiphenyl-4-yl]-1,2,4-oxadiazol-3-yl}benzyl)-N-methylglycine, hydrochloride salt]	179 to 181	–	–	–	–	–	–	–
COCc1cc(-c2nc(-c3cccc(CN(C)CC(=O)O)c3)no2)ccc1-c1cccc(F)c1C (as salt: hydrochloride) [Example 35, N-(3-{5-[3′-fluoro-2-(methoxymethyl)-2′-methylbiphenyl-4-yl]-1,2,4-oxadiazol-3-yl}benzyl)-N-methylglycine, hydrochloride salt]	216 to 218	–	–	–	–	–	–	–
COCc1cc(-c2nc(-c3cccc(CN(C)CC(=O)O)c3)no2)ccc1-c1ccc(F)cc1C (as salt: hydrochloride) [Example 36, N-(3-{5-[4′-fluoro-2-(methoxymethyl)-2′-methylbiphenyl-4-yl]-1,2,4-oxadiazol-3-yl}benzyl)-N-methylglycine, hydrochloride salt]	214 to 216	–	–	–	–	–	–	–
COCc1cc(-c2nc(-c3cccc(CN(C)CC(=O)O)c3)no2)ccc1-c1cc(F)ccc1C (as salt: hydrochloride) [Example 37, N-(3-{5-[5′-fluoro-2-(methoxymethyl)-2′-methylbiphenyl-4-yl]-1,2,4-oxadiazol-3-yl}benzyl)-N-methylglycine, hydrochloride salt]	177 to 183	–	–	–	–	–	–	–
COCc1cc(-c2nc(-c3ccc(CN(C)CC(=O)O)cc3)no2)ccc1-c1ccccc1Cl (as salt: hydrochloride) [Example 118, N-(4-{5-[2′-chloro-2-(methoxymethyl)biphenyl-4-yl]-1,2,4-oxadiazol-3-yl}benzyl)-N-methylglycine, hydrochloride salt]	194 to 200	–	–	–	–	–	–	–
COCc1cc(-c2nc(-c3ccc(CN(C)CC(=O)O)c(F)c3)no2)ccc1-c1ccccc1Cl (as salt: hydrochloride) [Example 119, N-(4-{5-[2′-chloro-2-(methoxymethyl)biphenyl-4-yl]-1,2,4-oxadiazol-3-yl}-2-fluorobenzyl)-N-methylglycine, hydrochloride salt]	181 to 188	–	–	–	–	–	–	–
Cc1cc(-c2nc(-c3ccc(CN(C)CC(=O)O)cc3)no2)ccc1-c1ccccc1C(F)F (as salt: hydrochloride) [Example 137, N-(4-{5-[2′-(difluoromethyl)-2-methylbiphenyl-4-yl]-1,2,4-oxadiazol-3-yl}benzyl)-N-methylglycine, hydrochloride salt]	229 to 234	–	–	–	–	–	–	–
CC1CCCCN1c1ccc(-c2nc(-c3cccc(CN(C)CC(=O)O)c3)no2)cc1C(F)(F)F (stereo not drawn) [Example 13, N-methyl-N-(3-{5-[4-(2-methylpiperidin-1-yl)-3-(trifluoromethyl)phenyl]-1,2,4-oxadiazol-3-yl}benzyl)glycine]	–	0.96	470	4.58e-10	8.95e-08	2.75e-07	7.38	–
COCc1cc(-c2nc(-c3cc(F)cc(CN(C)CC(=O)O)c3)no2)ccc1-c1ccccc1C [Example 20, N-(3-fluoro-5-{5-[2-(methoxymethyl)-2′-methylbiphenyl-4-yl]-1,2,4-oxadiazol-3-yl}benzyl)-N-methylglycine, hydrochloride salt]	–	0.717	59.9	1.69e-10	1.73e-08	7.78e-08	5.33	Ki (S1P1 [3]; [10]): 1.33e-09 M; % Lymphopenia in mouse at 48 h (lymphocytes): 72 ± 5%; Plasma AUD? [6]: 202.751 µg·h/mL; Lymph node/plasma ratio: 24 h ([6]; 24 h): 0.8; Lymph node/plasma ratio: 48 h ([6]; 48 h): 0.7; Kp ([6]; female, C57BL/6, brain, oral, 30 mg/kg, ratio of AUC, read-out: Brain/Plasma-Ratio: AUCZ (h*ng/ml)): 0.15; Cmax [6, 11]: 10300 ng/mL; Tmax [6, 11]: 4 h; half-life [6, 11]: 5.3 h; CL/F ([6]; female, C57BL/6, plasma, po, 30 mg/kg, read-out: Cl/F (L/kg/h) (Fz%)): 0.15 L/kg/h
COCc1cc(-c2nc(-c3cc(F)cc(CN(C)CCC(=O)O)c3)no2)ccc1-c1ccccc1C [Example 21, N-(3-fluoro-5-{5-[2-(methoxymethyl)-2′-methylbiphenyl-4-yl]-1,2,4-oxadiazol-3-yl}benzyl)-N-methyl-beta-alanine, hydrochloride salt]	–	0.332	15	1.17e-10	1.13e-08	1.56e-08	4.52	Ki (S1P1 [3]; [10]): 9.99e-10 M
